Literature values, collected in publication PMC6727202 (Molecular pharmaceutics, 2019).

System: kidney

NCCCC[C@H](N)C(=O)O [lysine]
Reduction of kidney uptake of radiolabeled octreotide (lysine): ~ 35% | Reduction of renal uptake of radiolabeled octreotide (oral or intravenous administration of lysine): up to 40%
